According to patent US20080312220A1, “Oxadiazole Derivatives with Crth2 Receptor Activity” (priority 2005, published 2008):

Tests used:
human CRTH2 receptor = biological target: T1, human CRTH2 receptor (Homo sapiens, UniProt Q9Y5Y4); assay: Receptor binding assay, competition with [3H]PGD2 on whole transfected cells; details: competition with 0.1 nM [3H]PGD2, whole cells expressing CRTH2
T1 construct: expressed in transfected cells; host or cells: COS-7 cells, transient transfection (calcium phosphate)
T1 sequence (Q9Y5Y4 1-395): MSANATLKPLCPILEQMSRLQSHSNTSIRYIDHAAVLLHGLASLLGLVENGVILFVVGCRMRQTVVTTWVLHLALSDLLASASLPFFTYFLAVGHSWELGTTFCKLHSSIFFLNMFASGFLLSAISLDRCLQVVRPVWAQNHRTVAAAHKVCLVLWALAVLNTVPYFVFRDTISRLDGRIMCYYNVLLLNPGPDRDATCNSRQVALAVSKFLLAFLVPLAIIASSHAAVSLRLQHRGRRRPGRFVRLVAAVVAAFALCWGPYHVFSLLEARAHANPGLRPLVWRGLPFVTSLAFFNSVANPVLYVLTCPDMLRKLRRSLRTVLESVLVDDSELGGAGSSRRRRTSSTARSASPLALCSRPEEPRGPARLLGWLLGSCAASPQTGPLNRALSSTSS
Source text: (§1) Generation/origin of the cDNA Constructs. The coding sequence of the human CRTH2 receptor (genbank accession no NM_004778) was amplified by PCR from a human hippocampus cDNA library and inserted into the pcDNA3.1(+) expression vector (invitrogen) via 5′ HindIII and 3′ EcoRI. To generate a CRTH2-Renilla luciferase (CRTH2-Rluc) fusion protein, the CRTH2 coding sequence without a STOP codon and Rluc were amplified, fused in frame by PCR and subcloned into the pcDNA3.1(+)Zeo expression vector (invitrogen). Human β-arrestin2 (β-arr2) N-terminally tagged with GFP^2 (βarr2-GFP^2) and Renilla luciferase were purchased from BioSignal Packard Inc, (Montreal, Canada). The sequence identity of the construct was verified by restriction endonuclease digests and sequencing in both directions on an ABI Prism (Applied Biosystems, Foster City, Calif.).
(§2) Cell Culture and Transfection. COS-7 cells were grown in Dulbecco's modified Eagle's medium (DMEM) 1885 supplemented with 10% fetal bovine serum, 100 units/ml penicillin, […], and kept at 37° C. in a 10% CO2 atmosphere. HEK293 cells were maintained in Minimum Essential medium (MEM) supplemented with 10% (v/v) heat inactivated fetal calf serum (HIFCS), 2 mM Glutamax™-I, 1% non essential amino acids (NEAA), 1% sodium pyruvate and 10 μg/ml gentamicin. For binding experiments, COS7 cells were transiently transfected with the CRTH2 receptor using a calcium phosphate-DNAcoprecipitation method with the addition of chloroquine (as described by Holst et al., 2001↓). To perform the functional Bioluminescence Resonance Energy Transfer (BRET) assays, a HEK293 cell clone stably expressing Parr2-GFP^2 and CRTH2-Rluc was generated (CRTH2-HEK293 cells).
Binding assay. 24 h after transfection COS-7 cells were seeded into 96 well plates at a density of 30.000 cells/well. Competition binding experiments on whole cells were then performed about 18-24 h later using 0.1 nM [^3H]PGD2 (NEN, 172 Ci/mmol) in a binding buffer consisting of HBSS (GIBCO) and 10 mM HEPES. Competing ligands were diluted in DMSO which was kept constant at 1% (v/v) of the final incubation volume. Total and nonspecific binding were determined in the absence and presence of 10 μM PGD2. Binding reactions were routinely conducted for 3 h at 4° C. and terminated by 2 washes (100 μl each) with ice cold binding buffer. Radioactivity was determined by liquid scintillation counting in a TOPCOUNTER (Packard) following over night incubation in Microscint 20. Stable HEK293 cells were seeded at a density of 30.000 cells/well 18-24 h prior to the binding assay which was performed essentially as described for COS7 cells above. Determinations were made in duplicates.
(§3) Curve analysis was performed with the GraphPadPrism software 3.0 (Graphpad Prism Inc., San Diego, USA) and IC50 values were calculated as a measure of the antagonistic potencies.

human CRTH2-Rluc = biological target: T2, human CRTH2-Rluc (Homo sapiens, UniProt Q9Y5Y4); assay: Functional antagonist BRET assay (CRTH2-Rluc / GFP2-β-arrestin2 in HEK293 cells); assay type: cell-based; details: HEK293 cells stably expressing CRTH2-Rluc and GFP2-β-arr2, read-out: Antag. IC50
T2 construct: expressed in transfected cells; host or cells: HEK293 cell clone stably expressing βarr2-GFP2 and CRTH2-Rluc
T2 sequence (Q9Y5Y4 1-395): T1 sequence (Q9Y5Y4 1-395)
Source text: as §1, §2
BRET assay. Functional BRET assays were performed on HEK293 cells stably expressing human CRTH2-Rluc and GFP^2-β-arr2. Prior to their use in the BRET assay cells were detached and re-suspended in D-PBS with 1000 mg/L L-Glucose at a density of 2×10^6 cells/mL. DeepBlueC™ was diluted to 50 μM in D-PBS with 1000 mg/L L-Glucose (light sensitive). 100 μL of cell suspension was transferred to wells in a 96-well microplate (white OptiPlate) and placed in the Mithras LB 940 instrument (BERTHOLD TECHNOLOGIES, Bad Wildbad, Germany). 12 μL/well agonist was then injected by injector 1 and 10 μL/well DeepBlueC™ was injected simultaneously by injector 2. Five seconds after the injections the light output from the well was measured sequentially at 400 nm and 515 nm, and the BRET signal (mBRET ratio) was calculated by the ratio of the fluorescence emitted by GFP^2-β-arr2 (515 nm) over the light emitted by the receptor-Rluc (400 nm). Antagonists were added before placing the microplates into the Mithras LB 940 and allowed to incubate for 15 minutes prior to the addition of agonist and DeepBlueC™. Compounds were dissolved in DMSO and the final DMSO concentration was kept constant at 1% in the assay.
as §3

Structure (SMILES)	IC50 (human CRTH2 receptor) [nM]	IC50 (human CRTH2-Rluc) [nM]
O=C(O)COc1ccc(Br)cc1-c1nc(C(c2ccccc2)N2CCOCC2)no1 (stereo not drawn) [Example D4]	< 500	< 500
CS(=O)(=O)N1CCC(c2ccc(F)cc2)(c2noc(-c3cc(Br)ccc3OCC(=O)O)n2)CC1 [Example D19, (4-Bromo-2-{3-[4-(4-fluoro-phenyl)-1-methanesulfonyl-piperidin-4-yl]-[1,2,4]oxadiazol-5-yl}-phenoxy)-acetic acid]	< 500	< 500
O=C(O)COc1ccc(Br)cc1-c1nc(C2(c3c(Cl)cccc3Cl)CC2)no1 [Example D13, (4-Bromo-2-{3-[1-(2,6-dichloro-phenyl)-cyclopropyl]-[1,2,4]oxadiazol-5-yl}-phenoxy)-acetic acid]	< 500	< 500
CN1CCC(c2ccccc2)(c2noc(-c3cc(Br)ccc3OCC(=O)O)n2)CC1 [Example D11, {4-Bromo-2-[3-(1-methyl-4-phenyl-piperidin-4-yl)-[1,2,4]oxadiazol-5-yl]-phenoxy}-acetic acid]	< 500	< 500
O=C(O)COc1ccc(Br)cc1-c1nc(C2(c3ccccc3)CC2)no1 [Example D1, {4-Bromo-2-[3-(1-phenylcyclopropyl)-[1,2,4]oxadiazol-5-yl]phenoxy}acetic acid]	< 500	< 500
O=C(O)COc1ccc(Br)cc1-c1nc(C2(c3ccc(Cl)cc3Cl)CC2)no1 [Example D9, (4-Bromo-2-{3-[1-(2,4-dichloro-phenyl)-cyclopropyl]-[1,2,4]oxadiazol-5-yl}-phenoxy)-acetic acid]	< 500	< 500
COC(=O)N1CCC(c2ccccc2)(c2noc(-c3cc(Br)ccc3OCC(=O)O)n2)CC1 [Example D16, 4-[5-(5-Bromo-2-carboxymethoxy-phenyl)-[1,2,4]oxadiazol-3-yl]-4-phenyl-piperidine-1-carboxylic acid methyl ester]	< 500	< 500
CCC(=O)N1CCC(c2ccccc2)(c2noc(-c3cc(Br)ccc3OCC(=O)O)n2)CC1 [Example D7, {4-Bromo-2-[3-(4-phenyl-1-propionyl-piperidin-4-yl)-[1,2,4]oxadiazol-5-yl]-phenoxy}-acetic acid]	< 500	< 500
O=C(O)COc1ccc(Br)cc1-c1nc(C2(c3ccccc3)CCNCC2)no1 [Example D5, {4-Bromo-2-[3-(4-phenyl-piperidin-4-yl)-[1,2,4]oxadiazol-5-yl]-phenoxy}-acetic acid]	< 500	500 to 5000
C[C@H](Oc1ccc(Br)cc1-c1nc(C2(c3ccc(F)cc3)CC2)no1)C(=O)O [Example D21, (S)-2-(4-Bromo-2-{3-[1-(4-fluoro-phenyl)-cyclopropyl]-[1,2,4]oxadiazol-5-yl}-phenoxy)-propionic acid]	< 500	< 500
CC(C)C(=O)N1CCC(c2ccccc2)(c2noc(-c3cc(Br)ccc3OCC(=O)O)n2)CC1 [Example D8, {4-Bromo-2-[3-(1-isobutyryl-4-phenyl-piperidin-4-yl)-[1,2,4]oxadiazol-5-yl]-phenoxy}-acetic acid]	< 500	< 500
O=C(O)COc1ccc(Br)cc1-c1nc(C2(c3ccccc3)CCCCC2)no1 [Example D3, {4-Bromo-2-[3-(1-phenyl-cyclohexyl)-[1,2,4]oxadiazol-5-yl]-phenoxy}-acetic acid]	< 500	< 500
CS(=O)(=O)N1CCC(c2ccccc2)(c2noc(-c3cc(Br)ccc3OCC(=O)O)n2)CC1 [Example D10, {4-Bromo-2-[3-(1-methanesulfonyl-4-phenyl-piperidin-4-yl)-[1,2,4]oxadiazol-5-yl]-phenoxy}-acetic acid]	< 500	< 500
O=C(O)COc1ccc(Br)cc1-c1nc(C2(c3ccccc3)CCN(C(=O)CO)CC2)no1 [Example D18, (4-Bromo-2-{3-[1-(2-hydroxy-acetyl)-4-phenyl-piperidin-4-yl]-[1,2,4]oxadiazol-5-yl}-phenoxy)-acetic acid]	< 500	< 500
O=C(O)COc1ccc(Br)cc1-c1nc(C(c2ccc(F)cc2)N2CCS(=O)(=O)CC2)no1 (stereo not drawn) [Example D20, (4-Bromo-2-{3-[(1,1-dioxo-1lambda*6*-thiomorpholin-4-yl)-(4-fluoro-phenyl)-methyl]-[1,2,4]oxadiazol-5-yl}-phenoxy)-acetic acid]	< 500	< 500
CC(=O)OCC(=O)N1CCC(c2ccccc2)(c2noc(-c3cc(Br)ccc3OCC(=O)O)n2)CC1 [Example D17, (2-{3-[1-(2-Acetoxy-acetyl)-4-phenyl-piperidin-4-yl]-[1,2,4]oxadiazol-5-yl}-4-bromo-phenoxy)-acetic acid]	< 500	< 500
O=C(O)COc1ccc(Br)cc1-c1nc(C2(c3ccc(F)cc3)CC2)no1 [Example D6, (4-Bromo-2-{3-[1-(4-fluoro-phenyl)-cyclopropyl]-[1,2,4]oxadiazol-5-yl}-phenoxy)-acetic acid]	< 500	< 500
O=C(O)COc1ccc(Br)cc1-c1nc(C2(c3ccccc3)CCC2)no1 [Example D14, {4-Bromo-2-[3-(1-phenyl-cyclobutyl)-[1,2,4]oxadiazol-5-yl]-phenoxy}-acetic acid]	< 500	< 500
O=C(O)COc1ccc(Br)cc1-c1nc(C2(c3ccccc3)CCN(C(=O)C3CC3)CC2)no1 [Example D12, {4-Bromo-2-[3-(1-cyclopropanecarbonyl-4-phenyl-piperidin-4-yl)-[1,2,4]oxadiazol-5-yl]-phenoxy}-acetic acid]	< 500	< 500
CC(=O)N1CCC(c2ccccc2)(c2noc(-c3cc(Br)ccc3OCC(=O)O)n2)CC1 [Example D2, {2-[3-(1-Acetyl-4-phenyl-piperidin-4-yl)-[1,2,4]oxadiazol-5-yl]-4-bromo-phenoxy}-acetic acid]	< 500	< 500
O=C(O)COc1ccc(Br)cc1-c1nc(C2(c3ccccc3)CCN(S(=O)(=O)C3CC3)CC2)no1 [Example D15, {4-Bromo-2-[3-(1-cyclopropanesulfonyl-4-phenyl-piperidin-4-yl)-[1,2,4]oxadiazol-5-yl]-phenoxy}-acetic acid]	< 500	< 500
